PMC9120013, “Ribosome inhibition by C9ORF72-ALS/FTD-associated poly-PR and poly-GR proteins revealed by cryo-EM” (Nature Communications, 2022)
Where two headings read alike, the source gives them in different places. Ends that are not written are not given here.

Key:
[1] = target: translation of nanoluciferase mRNA in rabbit reticulocyte lysates; test: Nanoluciferase mRNA translation in rabbit reticulocyte lysate, inhibitor preincubated 5 min before mRNA; format: biochemical; settings: read-out: IC50 of translation inhibition
Source text: Rabbit reticulocyte lysates (RRL, Promega) were used to investigate the inhibition of translation by DPR proteins. We independently monitored translation of two mRNAs encoding non-homologous proteins of different lengths: nanoluciferase[71] and firefly luciferase. To measure the IC50s of the translational inhibitors cycloheximide (Akros Organics), harringtonine (AbCam), GDPCP (Jena Biosciences), PR20 and GR20, we monitored the translation of nanoluciferase mRNA in nuclease-treated RRL (Promega). […] Next, 10 ng/μl (final concentration) 6xhis-Nanoluciferase mRNA flanked with the 5'- and 3'-UTR from rabbit beta-globin[48] was added and the luminescence reactions were continuously measured by an Infinite m1000 pro microplate reader (Tecan) for 15 min at 30 °C. The 1st derivative of the luminescence reactions was determined in Prism 8 (GraphPad Software, LLC) and the maximum was identified and the mean of three maximums from independent experiments for each inhibitor was taken as the rate. The rates were plotted versus inhibitors concentration, and the plots were fitted in Prism 8 (GraphPad Software, LLC) to a 3-parameter inhibition model (Y = baseline + (max-baseline)/(1 + X/IC50)) to obtain the IC50 values where the baseline was constrained to 0. This procedure was modified to separate translation initiation from translation elongation by changing the time of addition of the inhibitors to ~300 s after mRNA addition when RLUs had reached a value of ~50,000. Here, the maximum of the first derivative was taken in the 2nd or later measurement taken after inhibitor addition.
The following additional controls indicate that DPR-induced changes in fluorescence were caused by translation inhibition.

[2] = test system: translation in E. coli cell lysates; test: Nanoluciferase translation in E. coli cell lysate (NEBExpress); format: biochemical; settings: n=3
Description: E. coli cell lysates (NEBExpress, NEB) were used to investigate bacterial translation inhibition by GR20 and PR20. We monitored the translation of an in vitro transcribed mRNA encoding a Shine-Dalgarno sequence preceding the nanoluciferase (Promega) open reading frame. The mRNA was prepared by in vitro transcription of a PCR-template obtained by amplifying the nanoluciferase open reading frame from the plasmid described in reference with the following primers: T7 + SD-forward: […], based on the pet28a+ plasmid and reverse: […]. […] Then 1 μl of water or different concentrations (10-100 μM) of PR20 or GR20 or 200 μM erythromycin were added and the plate was incubated at 37 °C for 5 min inside of an Infinite m1000 pro microplate reader (Tecan). Next, the nanoluciferase mRNA was added to the final concentration of 20 ng/μl in a 10-μl reaction. Translation reactions were incubated at 37 °C for 20 min, luminescence of the samples was continuously measured by the microplate reader to record the time course of protein synthesis. Time progress curves, obtained in the experiments, were processed in MS Excel, and the rate of change of the relative light units between 100 and 200 s was measured, the mean and SEM of three experiments is reported in column graph in Supplementary Fig. 2a.

[3] = test system: total HEK293 RNA; test: DPR-induced RNA aggregation, turbidity OD600; format: physicochemical; settings: for visible opalescence / OD600 change: 10 µM; for OD600 change / optical density relative to RNA alone: 100 ng/μl HEK293 RNA; for optical density relative to RNA alone: 0.2 to 1 µM, 20 min, room temperature
Description: To test whether arginine-containing DPR proteins cause mRNA aggregation at the DPR concentrations sufficient to inhibit protein synthesis (0.2 and 1 μM), we measured turbidity (optical density at 600 nm; OD600; similarly to[41]) of the solutions containing 100 ng/μl total HEK293 RNA. We incubated RNA with PR20, GR20, GP20 (control), or water for 20 min at room temperature. […] Optical density was measured using NanoDrop One (Thermo Scientific, Waltham, MA, USA).

[4] = test system: rabbit 80S ribosomes; test: Kinetic peptidyl transfer (puromycin) assay on rabbit 80S ribosomes; format: biochemical
Source text: To test the effects of PR20 on the mammalian peptidyl transferase, 80S ribosomes were purified from rabbit reticulocyte lysate (Green Hectares) and dissociated into 40S and 60S subunits as described in the section entitled “Cryo-EM complex of mammalian 80S ribosome with PR20”. A model leaderless mRNA fragment placing the AUG codon in the P-site and the UUC codon in the A site (CCAC AUG UUC CCCCCCCCCCCCCCCCCC), was synthesized by IDT. The 80S•mRNA•fMet-tRNA^fMet complex with PRn (where n = 10, 20, or 40) or GR20 was assembled as follows. one micrometer 60S subunit was mixed with the DPR (starting with the initial DPR concentration of 33x relative to its final concentration in the reaction) in Assembly Buffer containing 20 mM Tris-acetate (pH 7.0), 100 mM KOAc, 10 mM Mg(OAc)2, and the mixture was incubated for 5 min at 30 °C. […] 1095 nM [^35S]-fMet-tRNA^fMet and the 60S solution were added (0.5 volumes of the 40S solution), resulting in the following concentrations: 330 nM 60S, 400 nM 40S, 730 nM tRNA, 11 µM mRNA and 11x of final concentration of a DPR in the buffer (20 mM Tris-acetate (pH 7.0), 100 mM KOAc, 10 mM Mg(OAc)2). The solution was incubated for 5 min at 30 °C. The solution was diluted ten times with the same buffer, then puromycin (prepared in the same buffer) was added and time progress curves were recorded.
The kinetics of puromycin reaction on the 70S or 80S ribosomes were recorded and analyzed essentially as described. An aliquot (4.5 μl) of the complex prior to addition of puromycin was quenched in 30 μl of saturated MgSO4 in 0.1 M NaOAc to represent the zero-time point. Five microliters of 500 µM puromycin (in the same buffer as that used for the ribosomal complex) was added to 45 μl of the complex to initiate the reaction, yielding estimated final concentrations: 30 nM for the ribosome, 1 µM mRNA, 66 nM [^35S]-fMet-tRNA^fMet, 50 µM puromycin, and varying concentrations of PRn and GRn peptides, from 30 nM to 2 μM. After 6, 15, 30, 90 s, and 5, 15, 30, 60, and (for slower reactions) 180 min, 5-μl aliquots were quenched in 30 μl of saturated MgSO4 in 0.1 M NaOAc. All quenched samples were extracted with 700 μl ethyl-acetate. 600 μl of the extract were mixed with 3.5 ml of Econo-Safe scintillation cocktail (RPI), and the amount of released [^35S]-labeled dipeptide was measured for each time point using a scintillation counter (Beckman Coulter, Inc.).
All time progress curves were recorded in duplicates, using independently prepared 70S or 80S complexes. Reaction rates were calculated using single-exponential or double-exponential (80S complexes) regressions for different concentrations of PRn and GRn using GraphPad Prism 8. Hyperbola fitting in Gnuplot was used to derive apparent Ki-values.

[5] = 50% RRL, 5-min preincubation at 30 °C before nanoluciferase mRNA, maximal rate vs concentration, n = 3, mean ± SEM

Compound | IC50 ([1]; 33% RRL) | IC50 [1, 5] | concentration needed to inhibit translation in E. coli lysate [2] | visible opalescence [3] | OD600 change [3] | optical density relative to RNA alone [3] | effect on peptidyl transfer on rabbit 80S ([4]; 2 µM, n=2) | concentration at which inhibition of peptidyl transfer starts ([4]; 30 nM 80S)
N=C(N)NCCC[C@H](NC(=O)CNC(=O)[C@H](CCCNC(=N)N)NC(=O)CNC(=O)[C@H](CCCNC(=N)N)NC(=O)CNC(=O)[C@H](CCCNC(=N)N)NC(=O)CNC(=O)[C@H](CCCNC(=N)N)NC(=O)CNC(=O)[C@H](CCCNC(=N)N)NC(=O)CNC(=O)[C@H](CCCNC(=N)N)NC(=O)CNC(=O)[C@H](CCCNC(=N)N)NC(=O)CNC(=O)[C@H](CCCNC(=N)N)NC(=O)CNC(=O)[C@H](CCCNC(=N)N)NC(=O)CNC(=O)[C@H](CCCNC(=N)N)NC(=O)CNC(=O)[C@H](CCCNC(=N)N)NC(=O)CNC(=O)[C@H](CCCNC(=N)N)NC(=O)CNC(=O)[C@H](CCCNC(=N)N)NC(=O)CNC(=O)[C@H](CCCNC(=N)N)NC(=O)CNC(=O)[C@H](CCCNC(=N)N)NC(=O)CNC(=O)[C@H](CCCNC(=N)N)NC(=O)CNC(=O)[C@H](CCCNC(=N)N)NC(=O)CNC(=O)[C@H](CCCNC(=N)N)NC(=O)CNC(=O)[C@H](CCCNC(=N)N)NC(=O)CN)C(=O)O [GR20] | 425 nM | 640 nM | > 10 µM | did not induce visible opalescence | increased OD600 | did not increase optical density | inhibits peptidyl transfer | 
PRPRPRPRPRPRPRPRPRPRPRPRPRPRPRPRPRPRPRPR [PR20] | 325 nM | 840 nM | ≥ 5 µM | did not induce visible opalescence | increased OD600 | did not increase optical density |  | ~ 100 nM
